Results from patent US20220401390A1, “TREATMENTS OF DIABETIC MACULAR EDEMA AND IMPAIRED VISUAL ACUITY” (KALVISTA PHARMACEUTICALS LIMITED, priority 2019, published 2022).

How the values were obtained:
Type in all cases: in vivo, human
[1] = tested on: subjects with center involved diabetic macular edema; experiment: Study 1: safety and tolerability of single ascending intravitreal doses
From the text: Study—an Open Label, Single Ascending Dose Study to Investigate the Safety and Tolerability of the Compound of Formula A Administered by Intravitreal Injection in Subjects with Center Involved Diabetic Macular Edema and Reduced Vision
The primary objective of the trial was to evaluate the local and systemic safety and tolerability of single ascending doses administered via intravitreal injection of the compound of Formula A in adult male and female subjects with central involved diabetic macular edema.
Following the signing of informed consent, subjects attended the clinic where screening assessments were recorded (Clinic Visit 1). When deemed eligible, subjects attended the clinic where baseline measurements were recorded (recorded as Day 0, Clinic Visit 2). Following confirmation of eligibility and the taking of baseline ophthalmic measurements, a single intravitreal injection of the compound of Formula A, was administered to the study eye as per Diabetic Retinopathy Clinical Research Network (DRCR.net) protocol.
(§1) Each subject returned on Day 1, 7, 14, 28 and 56 for safety and ophthalmic assessment. Pharmacokinetic assessment was also taken. In addition, the subject was contacted by the Study Site on Day 3 (+1-1 day) by telephone to inquire about the subject's visual wellbeing and to ask about any adverse events.
Once the highest safe and tolerated (or practical) dose had been established, the study proceeded to Part 2 in which 5 additional subjects were treated with the established highest safe and tolerated (or practical) dose according to the same protocol with the same procedures performed as described for subjects enrolled into Part 1.
(§2) Single 100 μL intravitreal injection of: • 1 μg-10 μg/mL of the compound of Formula A • 3 μg-30 μg/mL of the compound of Formula A • […] of the compound of Formula A
• Best Corrected Visual Acuity as measured by ETDRS EVA • Intraocular pressure • Color vision • Multifocal Electroretinogram (mfERG) • Humphrey Visual Field 24-2 (HVF 24-2) • Treatment-Emergent Adverse Events (TEAEs) • Changes on ophthalmic examination • Clinical laboratory test results • Vital signs • ECG findings

[2] = tested on: subjects with ciDME who have had prior anti-VEGF treatment; experiment: Study 2: local and systemic safety and tolerability
From the text: To evaluate the local and systemic safety and tolerability of monthly dosing of the injections of the compound of Formula A in subjects with ciDME who had had prior anti-VEGF treatment.
This study was a randomized, sham-controlled, double-masked, 3-arm study into efficacy, safety and tolerability of monthly intravitreal injections of the compound of Formula A as a monotherapy in adult subjects with ciDME. The subjects had all had prior anti-VEGF treatment.
The 129 eligible subjects were randomized approximately 1:1:1 into three arms: • 1. Arm 1, N=44: • Received injections of 3 μg/eye (100 μL injection volume at a concentration of 30 μg/mL) of the compound of formula A; • 2. Arm 2, N=41: • Received injections of 6 μg/eye (100 μL injection volume at a concentration of 60 μg/mL) of the compound of formula A; and • 3. Arm 3, N=44: • Received a sham procedure; during a 12-week, double-masked treatment period (a total of 4 doses given at approximately monthly intervals).
Approximately twenty-four (24) hours after each study drug administration or sham procedure on Day 1 and Weeks 4, 8, and 12, subjects were contacted by telephone to evaluate any reported AEs and changes in concomitant medications. In the event of any reported ocular or systemic AEs that were considered by the Investigator to be a possible cause for concern, the subjects returned to the clinic for assessment as soon as possible. • 3. Follow up Phase:
Safety variables of interest in this study are: • AEs; • Ophthalmic and physical findings; • Laboratory test results (clinical chemistry, hematology, and urinalysis); • Vital signs (SBP, DBP, PR, and respiratory rate).

[3] = tested on: subjects with center involved diabetic macular edema; experiment: Study 1: pharmacodynamic effect (visual acuity, retinal thickness); conditions: Day 84, 10 μg dose
[4] = Study 1: plasma profile following intravitreal injection
From the text: The secondary objectives were: • To evaluate the plasma profile of the compound of Formula A following intravitreal injection in adult male and female subjects with central involved diabetic macular edema. • To evaluate the pharmacodynamic effect of intravitreal injection of the compound of Formula A in adult male and female subjects with central involved diabetic macular edema.
as §1, §2

[5] = of the 14 subjects, single intravitreal injection, all dose groups

## CCOc1ccc(C[C@@H](NC(=O)c2ccccc2)C(=O)N[C@@H](Cc2ccccc2)C(=O)NCc2ccc(CN)cc2)cc1 [compound of Formula A, N—[(R)-1-[(S)-1-(4-Aminomethyl-benzylcarbamoyl)-2-phenyl-ethylcarbamoyl]-2-(4-ethoxy-phenyl)-ethyl]-benzamide]
[1]; 14 subjects, all dose groups
  Adverse events leading to withdrawal from the study: nor did any event lead to withdrawal from the study
  Deaths or other serious adverse events: no deaths or other serious adverse events
  Severe events: 1 patient
  Study drug-related events: 2 patients
[1]; [5]
  Subjects who reported at least one adverse event (%): 71%
  Subjects who reported at least one adverse event (number): 10 subjects
[1]; review of adverse events, laboratory results, ECG and physical examinations
  Adverse systemic effect: no evidence of any adverse effect associated with systemic exposure
[1]; single intravitreal injection, 1, 3 or 10 μg
  Tolerability of intravitreal injection: well tolerated
[2]; 6 μg arm
  AEs that led to discontinuation: one retinal neovascularization
[2]; majority of reported AEs, all arms
  Severity of reported adverse events (AEs): mild
[2]; monthly intravitreal injections, 3 μg or 6 μg
  Subjects in whom the treatment was safe and well-tolerated: > 99%
[3]
  Mean improvement in visual acuity: 5.5 letters
[4]; 3 μg/eye dose
  Time post dosing up to which plasma concentrations were quantifiable: up to 24 hours
[4]; 10 μg/eye
  Time post dosing up to which plasma concentrations were quantifiable: up to 24 hours
[4]; intravitreal injection of 1 μg/eye
  Time post injection up to which plasma concentrations were quantifiable: up to 4 hours
